According to patent US9980943B2, “Methods of treating muscular dystrophy” (BOARD OF REGENTS OF THE NEVADA SYSTEM OF HIGHER EDUCATION, …, priority 2013, dated 2018):

Assays:
Assay type in all cases: cell-based, mouse
[1] = system: α7 integrin (LacZ reporter in α7βgal+/− myoblasts); assay: Myoblast α7+/LacZ integrin FDG assay (Burkin assay in myoblasts, 96-well); conditions: α7+/LacZ myoblasts, 96-well
[2] = system: α7 integrin (LacZ reporter in α7+/LacZ myotubes); assay: Myotube α7 integrin FDG assay (Burkin assay in myotubes, 96-well); conditions: myotubes
[3] = system: β-galactosidase in CMV-LacZ C2C12 myoblasts; assay: CMV-LacZ secondary screen in C2C12 myoblasts (β-Gal stabilizing assay); conditions: CMV-LacZ C2C12 myoblasts
Description: In order to determine compounds that acted to stabilize β-gal in myogenic cells, a CMV-LacZ C2C12 cell line was used in a secondary screen. The EGFP gene from the pEGFP (Clontech) vector was replaced by LACZ PCR product with digests of the vector/PCR product performed using EcoRI (NEB) and NotI (NEB) and ligated using T4 DNA Ligase (NEB) following standard procedures to produce the CMV-LACZ vector. The LACZ gene was generated by PCR from the pBK-RSV (Stratagene) vector using primers LACZ EcoRI F- and LACZ NotI R-. The CMV-LACZ vector was then digested with AfIII (NEB) to linearize the construct, which was then transfected in C2C12 myoblasts using Lipofectamine 2000 (Invitrogen) following the manufacturer's instructions. […] Clonal lines were selected and screened for βgal levels using the myoblast FDG assay.
The assays were used the original 96-well format and new dose-response curves for myoblasts (N=3-6 replicates for each data point), myotubes (N=3-6 replicates for data point), and CMV-LacZ secondary assay (N=2 replicates for each data point) using concentrations of 0.5 μM, 1 μM, 5 μM, 10 μM, 20 μM, and 40 μM (Tables 9-16).

[4] = system: β-galactosidase in CMV-LacZ C2C12 myotubes; assay: CMV-LacZ secondary screen in C2C12 myotubes (β-Gal stabilizing assay); conditions: C2C12 CMV-LacZ myotubes, fold relative to DMSO
Summary of the method: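 A secondary screen identifies compounds that stabilize β-gal independently of the native promoter, using CMV-LacZ C2C12 cells. Curves span 0.5–40 μM at six levels, in duplicate.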

| Structure (SMILES) | Burkin Assay in Myoblasts, signal relative to DMSO ([1]; 0.5 uM) | Burkin Assay in Myoblasts, signal relative to DMSO ([1]; 1 uM) | Burkin Assay in Myoblasts, signal relative to DMSO ([1]; 5 uM) | Burkin Assay in Myoblasts, signal relative to DMSO ([1]; 10 uM) | Burkin Assay in Myoblasts, signal relative to DMSO ([1]; 20 uM) | Burkin Assay in Myoblasts, signal relative to DMSO ([1]; 40 uM) | Burkin Assay in Myotubes, α7 integrin LacZ reporter signal relative to DMSO ([2]; 0.5 uM) | Burkin Assay in Myotubes, α7 integrin LacZ reporter signal relative to DMSO ([2]; 1 uM) | Burkin Assay in Myotubes, α7 integrin LacZ reporter signal relative to DMSO ([2]; 5 uM) | Burkin Assay in Myotubes, α7 integrin LacZ reporter signal relative to DMSO ([2]; 10 uM) | Burkin Assay in Myotubes, α7 integrin LacZ reporter signal relative to DMSO ([2]; 20 uM) | Burkin Assay in Myotubes, α7 integrin LacZ reporter signal relative to DMSO ([2]; 40 uM) | CMV-LACZ in Myoblasts (β-galactosidase activity relative to DMSO) ([3]; 0.5 uM) | CMV-LACZ in Myoblasts (β-galactosidase activity relative to DMSO) ([3]; 1 uM) | CMV-LACZ in Myoblasts (β-galactosidase activity relative to DMSO) ([3]; 5 uM) | CMV-LACZ in Myoblasts (β-galactosidase activity relative to DMSO) ([3]; 10 uM) | CMV-LACZ in Myoblasts (β-galactosidase activity relative to DMSO) ([3]; 20 uM) | CMV-LACZ in Myoblasts (β-galactosidase activity relative to DMSO) ([3]; 40 uM) | CMV-LACZ in Myotubes, signal relative to DMSO ([4]; 0.5 uM) | CMV-LACZ in Myotubes, signal relative to DMSO ([4]; 1 uM) | further results |
| --- | --- | --- | --- | --- | --- | --- | --- | --- | --- | --- | --- | --- | --- | --- | --- | --- | --- | --- | --- | --- | --- |
| O=C(O)CC1(c2ccccc2)C(=O)c2ccccc2C1=O [MLS000052969-01] | 1.25 | 1.352 | 0.9646 | 0.8356 | 0.8292 | 0.7591 | 0.9131 | 1.058 | 0.9184 | 0.876 | 0.6621 | 0.5548 | 0.8950 | 1.0529 | 0.9976 | 1.0444 | 1.1522 | 0.6800 | 0.9152 | 1.1714 | CMV-LACZ in Myotubes, signal relative to DMSO ([4]; 5 uM): 1.0651; CMV-LACZ in Myotubes, signal relative to DMSO ([4]; 10 uM): 0.8406; CMV-LACZ in Myotubes, signal relative to DMSO ([4]; 20 uM): 0.9800; CMV-LACZ in Myotubes, signal relative to DMSO ([4]; 40 uM): 0.9726 |
| CCC(=O)c1ccc(OCC(O)CN2CC(C)OC(C)C2)cc1.O=C(O)C(=O)O (stereo not drawn) [MLS000053342-01] | 1.222 | 1.088 | 0.9766 | 0.8668 | 1.0354 | 1.022 | 1.059 | 1.011 | 1.002 | 1.03 | 1.049 | 1.11 | 1.0289 | 1.0397 | 1.0865 | 0.8785 | 0.9811 | 0.9930 | 0.9947 | 0.9863 | CMV-LACZ in Myotubes, signal relative to DMSO ([4]; 5 uM): 0.9033; CMV-LACZ in Myotubes, signal relative to DMSO ([4]; 10 uM): 0.9187; CMV-LACZ in Myotubes, signal relative to DMSO ([4]; 20 uM): 1.3044; CMV-LACZ in Myotubes, signal relative to DMSO ([4]; 40 uM): 1.1344 |
| CC(C)Oc1cccc(C(=O)Nc2ccc(CN3CCOCC3)cc2)c1 [MLS000062431-01] | 0.9542 | 0.9582 | 1.016 | 1.209 | 1.789 | 0.9038 | 0.9571 | 0.8415 | 1.178 | 1.1989 | 0.7643 | 0.8841 | 0.9557 | 1.1631 | 0.9848 | 1.1632 | 1.0467 | 1.0993 | 0.9133 | 0.9743 | CMV-LACZ in Myotubes, signal relative to DMSO ([4]; 5 uM): 0.9004; CMV-LACZ in Myotubes, signal relative to DMSO ([4]; 10 uM): 0.9690; CMV-LACZ in Myotubes, signal relative to DMSO ([4]; 20 uM): 0.8812; CMV-LACZ in Myotubes, signal relative to DMSO ([4]; 40 uM): 1.2047 |
